Experiment: Controlled randomized single blind clinical trial in surgical open wounds
Assay type: in vivo, human
Method: The biocompatibility of the 0.046% HOCl concentration aqueous solution was tested in a three way controlled and randomized single blind clinical trial. Patients were randomized into three groups (60 patients per group). The antiseptic efficacy and biocompatibility of the test solution vs. povidone-iodine vs. chlorhexidine (Chlorhexidine Gluconate—CHG) in surgical—clean and clean contaminated—open wounds was evaluated in 180 patients admitted to the surgical facilities of Erasmo Meoz Hospital in Cucuta, Colombia.

[H]/N=C(\N/C(=N/[H])NCCCCCCNC(=N)NC(=N)Nc1ccc(Cl)cc1)Nc1ccc(Cl)cc1 [chlorhexidine, Chlorhexidine Gluconate]
infected patients (after five days follow-up, 60 patients per group): two
wound appearance (biocompatibility) (human, in vivo): dried edges and no promising color in wound bed
